# Test results as given in PMC3509320 (Journal of medicinal chemistry, 2012).
# What was measured:
# [1] = molecular target: h5-HT4 (Homo sapiens, UniProt Q13639); assay: 5-HT4R intrinsic activity functional assay; conditions: h5-HT4, functional assay at CEREP
# [2] = molecular target: 5-HT4R (Rattus norvegicus, UniProt Q62758); assay: In vitro autoradiographic competition with [125I]1 on rat brain sections; assay type: binding
# [3] = molecular target: 5-HT4R (Mus musculus, UniProt P97288); assay: In vivo competition with [125I]1, ex vivo autoradiography of mouse brain
# [4] = SPECT tracer ref 19; cited from earlier work
# Chain of h5-HT4 (Q13639 whole entry): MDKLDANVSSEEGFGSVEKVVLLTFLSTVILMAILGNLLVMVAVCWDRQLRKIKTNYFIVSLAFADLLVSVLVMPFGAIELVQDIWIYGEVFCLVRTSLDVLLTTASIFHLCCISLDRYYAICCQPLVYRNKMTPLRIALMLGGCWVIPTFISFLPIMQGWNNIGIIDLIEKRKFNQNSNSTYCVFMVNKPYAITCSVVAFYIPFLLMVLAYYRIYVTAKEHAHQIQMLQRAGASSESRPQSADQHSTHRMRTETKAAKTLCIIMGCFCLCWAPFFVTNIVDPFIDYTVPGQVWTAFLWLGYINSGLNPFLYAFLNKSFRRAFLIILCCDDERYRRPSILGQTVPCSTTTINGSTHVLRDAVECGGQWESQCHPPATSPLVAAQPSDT
# Chain of 5-HT4R (Mus musculus, UniProt P97288) (P97288 whole entry): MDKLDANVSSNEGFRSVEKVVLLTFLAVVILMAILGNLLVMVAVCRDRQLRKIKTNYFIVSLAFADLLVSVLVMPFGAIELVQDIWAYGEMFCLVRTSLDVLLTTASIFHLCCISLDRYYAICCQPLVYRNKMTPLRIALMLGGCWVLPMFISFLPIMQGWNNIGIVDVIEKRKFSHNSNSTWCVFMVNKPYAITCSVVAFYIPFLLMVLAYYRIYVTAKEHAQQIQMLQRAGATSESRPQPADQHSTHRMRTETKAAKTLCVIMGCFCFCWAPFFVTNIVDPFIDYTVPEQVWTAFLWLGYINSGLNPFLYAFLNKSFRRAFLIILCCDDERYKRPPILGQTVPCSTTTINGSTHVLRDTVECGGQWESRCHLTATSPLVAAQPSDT
# Chain of 5-HT4R (Rattus norvegicus, UniProt Q62758) (Q62758 whole entry): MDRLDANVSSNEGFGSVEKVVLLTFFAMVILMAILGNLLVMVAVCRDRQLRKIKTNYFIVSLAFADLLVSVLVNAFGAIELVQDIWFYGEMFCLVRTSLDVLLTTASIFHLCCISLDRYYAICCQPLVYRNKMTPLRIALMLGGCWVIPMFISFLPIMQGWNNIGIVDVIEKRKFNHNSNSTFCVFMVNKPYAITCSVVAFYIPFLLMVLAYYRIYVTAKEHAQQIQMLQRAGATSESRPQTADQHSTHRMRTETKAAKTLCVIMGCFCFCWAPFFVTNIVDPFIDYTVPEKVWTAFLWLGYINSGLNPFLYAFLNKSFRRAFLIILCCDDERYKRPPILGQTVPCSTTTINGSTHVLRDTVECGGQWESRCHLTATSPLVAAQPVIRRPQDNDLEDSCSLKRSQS
smiles,measurement,setting,value
"CCCN1CCC(COc2nc3c(I)cccc3c3ncccc23)CC1 [Compound 11b, 7-Iodo-5-(1-propylpiperidin-4-yl)methyloxybenzo[h]-1,6-naphthyridine]",efficacy (intrinsic activity),[1],full antagonists
"Fc1cccc2c1nc(OCC1CCN(CCCc3ccc(I)cc3)CC1)c1cccnc12 [Compound 11d, 7-Fluoro-5-{1-[3-(4-iodophenyl)propyl]piperidin-4-yl}methyloxybenzo[h]-1,6-naphthyridine]",5-HT4R-specific [125I]1 radioactivity in autoradiograms,"[2]; 10 pM of 11d with 100 pM [125I]1, rat brain sections",decrease in the 5-HT4R-specific radioactivity
same,5-HT4R-specific [125I]1 radioactivity in autoradiograms,"[2]; 1 nM of 11d with 100 pM [125I]1, rat brain sections",almost complete abolishment of the signal
same,blood brain barrier crossing,[3]; i.v. 50 µg/kg,able to cross the blood brain barrier
same,specific binding of [125I]1 ex vivo,"[3]; i.v. co-injection of 50 µg/kg 11d, compared to [125I]1 alone",markedly reduced
same,efficacy (intrinsic activity),[1],full antagonists
"CCCN1CCC(COc2nc3c(F)cccc3c3ncccc23)CC1 [Compound 4v, 7-Fluoro-5-(1-propylpiperidin-4-yl)methyloxybenzo[h]-1,6-naphthyridine]",efficacy (intrinsic activity),[1],full antagonists
"CCCCN1CCC(COC(=O)c2cc([123I])c(N)c3c2OCCO3)CC1 [[^123I]1, (1-butylpiperidin-4-yl)methyl-8-amino-7-iodo[^123I]-2,3-dihydrobenzo[b][1,4]dioxine-5-carboxylate]",brain penetration,[4],low brain penetration
same,metabolism,[4],rapid metabolism
"CCCN1CCC(COc2nc3c(I)cccc3c3ccccc23)CC1 [Compound 11a, 4-Iodo-6-(1-propylpiperidin-4-yl)methyloxyphenanthridine]",efficacy (intrinsic activity),[1],full antagonists
